# According to US20220378802A1, “TREATMENT OF ALCOHOLIC HEPATITIS” (Durect Corporation, priority 2019, published 2022):
# “Also recorded” adds a separate entry of the source.
# Test system: patients with alcoholic hepatitis
# Test: Pharmacodynamic signals (Lille score, MELD, bilirubin, survival) in Phase 2a trial
# Format: in vivo, human
# Experimental: As described in more detail below, a total of 19 patients were enrolled into an open-label Phase 2a multi-center trial, of whom 15 had Maddrey's Discriminant Function (MDF) ≥32 (Severe Alcoholic Hepatitis (SAH)), 12 had MELD scores at 21-30, and 11 had baseline serum bilirubin levels >8 mg/dL. All patients received IV infused 25HC3S (at 30, 90, or 150 mg) on Day 1 and Day 4 (if still hospitalized), and were followed for 28-days. The final enrollment was 19 patients comprised of: 8 patients (4 moderate and 4 severe) dosed at 30 mg, 7 patients (3 moderate and 4 severe) dosed at 90 mg, and 4 patients (4 severe) dosed at 150 mg.
# • Study Drug A 25HC3S sodium salt solution contained: • 30 mg/mL 25HC3S sodium salt; • 240 mg/mL hydroxypropyl-beta-cyclodextrin; and • 50 mmole phosphate buffer • The 25HC3S sodium salt solution was diluted in 100 mL 5% dextrose or 0.9% sodium chloride infusion solution: • Dose 1: 30 mg of 25HC3S sodium salt in 100 mL 5% dextrose or 0.9% sodium chloride • Dose 2: 90 mg of 25HC3S sodium salt in 100 mL 5% dextrose or 0.9% sodium chloride • Dose 3: 150 mg of 25HC3S sodium salt in 100 mL 5% dextrose or 0.9% sodium chloride • 25HC3S sodium salt was administered by slow intravenous infusion over 2 hrs (50 mL/h) until the entire dose is given at Day 1 and Day 4. If a patient met the hospital discharge criteria prior to the second dose, the patient received only one dose instead of two doses. • Study Procedure The study was conducted in two parts. Part A included patients with MELD scores of 11-20 (moderate AH patients), and Part B included patients with MELD of scores 21-30. The doses of 25HC3S sodium salt administered were 30 mg and 90 mg for Part A and 30 mg, 90 mg and 150 mg for Part B, with 4 patients per dose group per Part (except for only 3 patients in the 90 mg cohort of Part A). All patients were followed to Day 28. • The study started in 4 moderate AH patients (Part A) at 30 mg dose level. After completing the dosing, a Dose Escalation Committee (DEC) reviewed safety, tolerability and pharmacokinetic (PK) data from all 4 patients and determined that it was safe to move forward to dose 4 severe AH patients (Part B) at the same dose level, 30 mg, as well as escalating the dose level to 90 mg in moderate patients (Part A). The same dose escalation procedure was then conducted in Part B until all 4 patients received 150 mg doses. • A flow diagram of the study is depicted in FIG. 2. Each dose cohort enrolled up to 4 subjects. Study subjects received up to 2 doses of 25HC3S sodium salt. The first dose was administered on Day 1 and, if still hospitalized, the second dose was administered on Day 4. A pharmacokinetic (PK) sample was collected at: Time 0 (pre-dose), 1 hour post-dose initiation, 2 hours (end of infusion), 3 hours post-dose initiation, 4 hours post-dose initiation, 8 hours post-dose initiation, 12 hours post-dose initiation, 24-hours post-dose initiation and 50 hours post-dose initiation.
# • 1. Patients with alcoholic hepatitis defined in this clinical trial as: • a. History of heavy alcohol abuse: >40 g/day in females or >60 g/day in males for a minimum period of 6 months, AND • b. Consumed alcohol within 12 weeks of entry into the study, AND • c. Serum bilirubin >3 mg/dL AND AST>ALT, but less than 300 U/L, AND • d. MELD score between 11-30, inclusive A listing of the baseline laboratory characteristics of the subjects of each cohort is shown in the Table below. […]
# [1] = All patients with 30 or 90 mg (14), Day 7
# [2] = Baseline bilirubin >8 mg/dL (11), Day 7
# [3] = Baseline bilirubin >8 mg/dL with 30 or 90 mg (8), Day 7
# [4] = MELD 21-30 with 30 or 90 mg (8), Day 7
# [5] = SAH with 30 or 90 mg (11), Day 7
compound,measurement,setting,value
"C[C@H](CCCC(C)(C)O)[C@H]1CC[C@H]2[C@@H]3CC=C4C[C@@H](OS(=O)(=O)O)CC[C@]4(C)[C@H]3CC[C@]12C [25HC3S, 5-cholesten-3,25-diol, 3-sulfate]",patients with a Lille score below 0.45 (number of patients),18 AH patients who returned for Day 7 visit,16/18
same,reductions from baseline in bilirubin (day 7 and 28) and MELD (day 28) compared with University of Louisville historical control,19 patients,statistically significantly greater reductions
same,survival rate,"28-day follow-up period, all patients",100%
same,Responders (Lille score <0.45),"All Patients (18), Day 7",89%
same,"Lille Median (1st, 3rd quartile)",[1],"0.05 (0.04, 0.19)"
same,Responders (Lille score <0.45),[1],100%
same,"Lille Median (1st, 3rd quartile)",[2],"0.10 (0.05, 0.20)"
same,Responders (Lille score <0.45),[2],82%
same,"Lille Median (1st, 3rd quartile)",[3],"0.10 (0.05, 0.19)"
same,Responders (Lille score <0.45),[3],100%
same,serum bilirubin levels,"Day 7, one or two doses",significantly reduced
same,MELD scores,"Day 28, one or two doses",significantly reduced
same,"Lille Median (1st, 3rd quartile)","MELD 21-30 (12), Day 7","0.19 (0.11, 0.25)"
same,Responders (Lille score <0.45),"MELD 21-30 (12), Day 7",83%
same,"Lille Median (1st, 3rd quartile)",[4],"0.19 (0.10, 0.19)"
same,Responders (Lille score <0.45),[4],100%
same,"Lille Median (1st, 3rd quartile)","SAH (15), Day 7","0.19 (0.05, 0.22)"
same,median reduction of MELD from baseline,"SAH patients treated with 30 or 90 mg, Day 28, p=0.01",−19.0%
same,MELD score change from baseline,"SAH patients, Day 28, 1 or 2 doses, p=0.01",−17.5%
same,"Lille Median (1st, 3rd quartile)",[5],"0.12 (0.05, 0.19)"
same,Responders (Lille score <0.45),[5],100%
same,Responders (Lille score <0.45),"SAH, MDF≥32 (15), Day 7",87%
same,reduction from baseline of serum total bilirubin levels,"all AH patients (n=18), Day 7",−14%
same,survival through 28-day follow-up period,"all patients, including SAH",survived
same,Lille score at Day 7,all subjects administered 30 mg and 90 mg (FIG. 6),less than 0.45
same,"Lille scores compared with published historical data (Louvet et al., 145 AH patients)",p<0.0001,significantly lower; also recorded: significantly better
same,Lille scores compared with University of Louisville historical control (standard of care),p=0.005,statistically significantly lower
same,serum bilirubin change,"patients with baseline bilirubin >8.0 mg/dL, Day 7, p=0.02",−25.1%
same,Lille score at Day 7,two of the subjects having severe AH administered 150 mg (FIG. 6),greater than 0.45
